The results in this text go back to patent US20090068126A1, “Composition for surface photoprotection” (priority 2004, published 2009).

In data set [1] the test system is Saccharomyces cerevisiae yeast, wild type strain D273-10B. The data set can be described thus: Phototoxicity test in Saccharomyces cerevisiae yeast (in vitro). Type of data set: cell-based.
Text: The method applied was used by Freitas (Freitas, Z. M. F., I Ax, P. A., Dellamora-Ortiz, G. M., Santos, E. P., Gonçalves, J. C. S., S.T.P Pharma Sciences, 2000, 10 (3): 239-242) for the Saccharomyces cerevisiae yeast use, wild type strain D273-10B, at room temperature, which dense cell layer is not sensitive to the ultraviolet radiation among 320-390 nm (UVA), besides being innocuous.
The yeast growth was in a YPD medium, constituted by yeast extract (1%), peptone (2%), anhydrous glucose (2%), agar (2%). […] The studied substances were applied in 1 g % concentration in Wharman no. 1 sterile filter paper disks, and fixed on the surface of culture media plates. A S. cerevisiae suspension was prepared in sterilized water (10 mL). Aliquots of 0.2 mL were applied and spread in the culture plates using a glass loop. Two plates were prepared for each sample. After seeding and applying the samples, one plate was allowed to grow under two UVA lamps (320-390 nm). A control plate was grown in the dark. […]
Data set [2] deals with short hair line albino Guinea pigs. The data set can be described thus: Phototoxicity in vivo. The arrangement: species or system guinea pig. The note with it: 0.1 g %, only in the irradiated area. As to the method:
The tests are accomplished in short hair line albino Guinea pigs (n=4). Twenty-four hours before the application of the test substance to 5% [tween/ethanol/water (1:1:10)], the animals dorsal portion hair are chemically removed. Four application sites are chosen, at random: 2 areas for the test substance and other 2 for the methoxypsoralen phototoxic standard at 0.1 g %, following by the UVA radiation exposition, and a control area is protected from the light. After 24 and 48 hours, the observations are made as for the erythema edema formation (AGÊNCIA NACIONAL DE VIGILÂNCIA SANITÁRIA-Brazil, Guia para avaliaçãa de segurança de produtos cosméticos. 2003.; Freitas, Z. M. F., I Ax, P. A., Dellamora-Ortiz, G. M., Santos, E. P., Gonçalves, J. C. S., 2000, S.T.P Pharma Sciences, 10 (3) 239-242; Dinardo, J. C., Wolf, B. A., Morris, W. E., Tenenbaum, S., Schnetzinger, R. W., 1985, J. Soc. Cosmet. Chem., 36, 425-433).

For the molecule `COc1c2occc2cc2ccc(=O)oc12` [8-methoxypsoralen], the growth inhibition halo entry in data set [1] (0.1 g % in ethanol, plates in the light and in the dark) is listed as “presented growth inhibition halo in the light”. Moreover, the “phototoxic answer in the in vitro phototoxicity test” value in data set [1] (irradiated plate and plate with light absence) was “non-phototoxic”. In addition, the erythema degree is recorded as 1 in data set [2] (24 hours) and 2 in data set [2] (48 hours).
